According to patent US11708348B2, “Protease inhibitors for treatment of coronavirus infections” (The Scripps Research Institute, priority 2021, dated 2023):

System: SARS-CoV-2 strain USA-WA1/2020
Assay: microbe, parasite or virus in culture
Format: cell-based
Details: Severe acute respiratory syndrome coronavirus 2, HeLa-ACE2, 24 h, HeLa-ACE2 cells, SARS-CoV-2 infection, 24 h; bound printed in cell; read-out: EC50, uM (Hela)

Structure (SMILES)	EC50 [µM]
CC1(C(=O)N2C[C@@H]3CCC[C@@H]3[C@H]2C(=O)N[C@@H](C[C@@H]2CCNC2=O)C(=O)COC(F)(F)F)CCCO1 (stereo partly drawn) [Compound 310, (1S,3aR,6aS)-2-(2-methyltetrahydrofuran-2-carbonyl)-N-((S)-3-oxo-1-((S)-2-oxopyrrolidin-3-yl)-4-(trifluoromethoxy)butan-2-yl)octahydro-cyclopenta[c]pyrrole-1-carboxamide]	> 1

Same assay, conditions: Severe acute respiratory syndrome coronavirus 2, HeLa-ACE2, 24 h, HeLa-ACE2 cells, SARS-CoV-2 infection, 24 h; cells given as a bound; read-out: EC50, uM (Hela)

Structure (SMILES)	EC50 [µM]
CC(C)C[C@H](NC(=O)OCCCc1cccc(Cl)c1)C(=O)N[C@@H](C[C@@H]1CCNC1=O)C(=O)COc1c(F)c(F)cc(F)c1F [Compound 128, 3-(3-chlorophenyl)propyl ((S)-4-methyl-1-oxo-1-(((S)-3-oxo-1-((S)-2-oxopyrrolidin-3-yl)-4-(2,3,5,6-tetrafluorophenoxy)butan-2-yl)amino)pentan-2-yl)carbamate]	> 1

Same assay, conditions: Severe acute respiratory syndrome coronavirus 2, HeLa-ACE2, 24 h, HeLa-ACE2 cells, SARS-CoV-2 infection, 24 h; class symbols; read-out: EC50, uM (Hela)

Structure (SMILES)	EC50 [µM]
CC(C)C[C@H](NC(=O)C(=O)N[C@@H]1CCCc2ccccc21)C(=O)N[C@@H](C[C@@H]1CCNC1=O)C(=O)COc1c(F)c(F)cc(F)c1F [Compound 147, N1-((S)-4-methyl-1-oxo-1-(((S)-3-oxo-1-((S)-2-oxopyrrolidin-3-yl)-4-(2,3,5,6-tetrafluorophenoxy)butan-2-yl)amino)pentan-2-yl)-N2-((R)-1,2,3,4-tetrahydronaphthalen-1-yl)oxalamide]	0.5 to 1
COc1cccc2[nH]c(C(=O)N[C@@H](CC(C)C)C(=O)N[C@@H](C[C@@H]3CCNC3=O)C(=O)COc3c(F)c(F)cc(F)c3F)cc12 [Compound 1, 4-methoxy-N-((S)-4-methyl-1-oxo-1-(((S)-3-oxo-1-((S)-2-oxopyrrolidin-3-yl)-4-(2,3,5,6-tetrafluorophenoxy)butan-2-yl)amino)pentan-2-yl)-1H-indole-2-carboxamide]	0.05 to 0.2
CC(C)C[C@H](NC(=O)C(=O)Nc1ccccc1OC(F)(F)F)C(=O)N[C@@H](C[C@@H]1CCNC1=O)C(=O)COc1c(F)c(F)cc(F)c1F [Compound 113, N1-((S)-4-methyl-1-oxo-1-(((S)-3-oxo-1-((S)-2-oxopyrrolidin-3-yl)-4-(2,3,5,6-tetrafluorophenoxy)butan-2-yl)amino)pentan-2-yl)-N2-(2-(trifluoromethoxy)-phenyl)oxalamide]	< 0.05
O=C(Nc1ccccc1)C(=O)N[C@@H](CC1CCCCC1)C(=O)N[C@@H](C[C@@H]1CCNC1=O)C(=O)COc1c(F)c(F)cc(F)c1F [Compound 35, N1-((S)-3-cyclohexyl-1-oxo-1-(((S)-3-oxo-1-((S)-2-oxopyrrolidin-3-yl)-4-(2,3,5,6-tetrafluorophenoxy)butan-2-yl)amino)propan-2-yl)-N2-phenyloxalamide]	< 0.05
CC(C)CC(C)(O)C(=O)N1CC2(CC2)C[C@H]1C(=O)N[C@@H](C[C@@H]1CCNC1=O)C(=O)COC(F)(F)F (stereo partly drawn) [Compound 360, (6S)-5-(2-hydroxy-2,4-dimethylpentanoyl)-N-((S)-3-oxo-1-((S)-2-oxopyrrolidin-3-yl)-4-(trifluoromethoxy)butan-2-yl)-5-azaspiro[2.4]-heptane-6-carboxamide]	< 0.05
CC1(C)[C@@H]2[C@@H](C(=O)N[C@@H](C[C@@H]3CCNC3=O)C(=O)COC(F)(F)F)N(C(=O)[C@@H](O)CC3CC3)C[C@@H]21 [Compound 394, (1R,2S,5S)-3-((S)-3-cyclopropyl-2-hydroxypropanoyl)-6,6-dimethyl-N-((S)-3-oxo-1-((S)-2-oxopyrrolidin-3-yl)-4-(trifluoromethoxy)butan-2-yl)-3-azabicyclo[3.1.0] hexane-2-carboxamide]	< 0.05
COC[C@H](Nc1ccccc1F)C(=O)N[C@@H](CC(C)C)C(=O)N[C@@H](C[C@@H]1CCNC1=O)C(=O)COC(F)(F)F [Compound 236, (S)-2-((S)-2-((2-fluorophenyl)amino)-3-methoxypropanamido)-4-methyl-N-((S)-3-oxo-1-((S)-2-oxopyrrolidin-3-yl)-4-(trifluoromethoxy)butan-2-yl)pentanamide]	< 0.05
O=C(Nc1ccccc1F)C(=O)N1CCC[C@H]1C(=O)N[C@@H](C[C@@H]1CCNC1=O)C(=O)COc1c(F)c(F)cc(F)c1F [Compound 91, (S)-1-(2-((2-fluorophenyl)amino)-2-oxoacetyl)-N-((S)-3-oxo-1-((S)-2-oxopyrrolidin-3-yl)-4-(2,3,5,6-tetrafluorophenoxy)butan-2-yl)pyrrolidine-2-carboxamide]	0.5 to 1

Same assay, conditions: Severe acute respiratory syndrome coronavirus 2, HeLa-ACE2, 24 h, HeLa-ACE2 cells, SARS-CoV-2 infection, 24 h; read-out: EC50, uM (Hela)

Structure (SMILES)	EC50 [µM]
O=C(NC1CC(F)(F)C1)C(=O)N1CC2(CC2)C[C@H]1C(=O)N[C@@H](C[C@@H]1CCNC1=O)C(=O)COC(F)(F)F [Compound 588, (S)-5-(2-((3,3-difluorocyclobutyl)-amino)-2-oxoacetyl)-N-((S)-3-oxo-1-((S)-2-oxopyrrolidin-3-yl)-4-(trifluoromethoxy)butan-2-yl)-5-azaspiro[2.4]-heptane-6-carboxamide]	0.2 to 0.5
O=C1NCC[C@H]1C[C@H](NC(=O)[C@@H]1[C@H]2CCC[C@H]2CN1C(=O)c1csc(C(F)(F)F)n1)C(=O)COC(F)(F)F [Compound 476, (1S,3aR,6aS)-N-((S)-3-oxo-1-((S)-2-oxopyrrolidin-3-yl)-4-(trifluoromethoxy)butan-2-yl)-2-(2-(trifluoromethyl)-thiazole-4-carbonyl)-octahydrocyclo-penta[c]pyrrole-1-carboxamide]	< 0.05
CC(C)C[C@@H](C)C(=O)N1CC2(CC2)C[C@H]1C(=O)N[C@@H](C[C@@H]1CCNC1=O)C(=O)COC(F)(F)F [Compound 752, (S)-5-((R)-2,4-dimethylpentanoyl)-N-((S)-3-oxo-1-((S)-2-oxopyrrolidin-3-yl)-4-(trifluoromethoxy)butan-2-yl)-5-azaspiro[2.4]heptane-6-carboxamide]	< 0.05
CC(C)C[C@H](NC(=O)[C@H](O)c1ccccc1F)C(=O)N[C@@H](C[C@@H]1CCNC1=O)C(=O)COC(F)(F)F [Compound 408, (S)-2-((R)-2-(2-fluorophenyl)-2-hydroxyacetamido)-4-methyl-N-((S)-3-oxo-1-((S)-2-oxopyrrolidin-3-yl)-4-(trifluoromethoxy)butan-2-yl)pentanamide]	< 0.05
CC[C@@H](OC(F)(F)F)C(=O)N1CC2(CC2)C[C@H]1C(=O)N[C@@H](C[C@@H]1CCNC1=O)C(=O)COC(F)(F)F [Compound 716, (S)-N-((S)-3-oxo-1-((S)-2-oxopyrrolidin-3-yl)-4-(trifluoromethoxy)butan-2-yl)-5-((R)-2-(trifluoromethoxy)butanoyl)-5-azaspiro[2.4]heptane-6-carboxamide]	0.05 to 0.2
O=C1NCC[C@H]1C[C@H](NC(=O)[C@@H]1CC2(CC2)CN1C(=O)c1ccc(Cl)cc1F)C(=O)COC(F)(F)F [Compound 702, (S)-5-(4-chloro-2-fluorobenzoyl)-N-((S)-3-oxo-1-((S)-2-oxopyrrolidin-3-yl)-4-(trifluoromethoxy)butan-2-yl)-5-azaspiro[2.4]heptane-6-carboxamide]	0.05 to 0.2
O=C1NCC[C@H]1C[C@H](NC(=O)[C@@H]1CC2(CC2)CN1C(=O)c1ncccc1F)C(=O)COC(F)(F)F [Compound 593, (S)-5-(3-fluoropicolinoyl)-N-((S)-3-oxo-1-((S)-2-oxopyrrolidin-3-yl)-4-(trifluoromethoxy)butan-2-yl)-5-azaspiro[2.4]-heptane-6-carboxamide]	0.2 to 0.5
[2H]C([2H])([2H])C([2H])([2H])C([2H])([2H])C([2H])([2H])C([2H])([2H])C(=O)N1CC2(CC2)C[C@H]1C(=O)N[C@@H](C[C@@H]1CCNC1=O)C(=O)COC(F)(F)F [Compound 733, (S)-5-(hexanoyl-d 11)-N-((S)-3-oxo-1-((S)-2-oxopyrrolidin-3-yl)-4-(trifluoromethoxy)butan-2-yl)-5-azaspiro[2.4]heptane-6-carboxamide]	< 0.05
O=C1NCC[C@H]1C[C@H](NC(=O)[C@@H]1CC2(CC2)CN1C(=O)c1cc(C(F)F)on1)C(=O)COC(F)(F)F [Compound 572, (S)-5-(5-(difluoromethyl)-isoxazole-3-carbonyl)-N-((S)-3-oxo-1-((S)-2-oxopyrrolidin-3-yl)-4-(trifluoromethoxy)butan-2-yl)-5-azaspiro[2.4]-heptane-6-carboxamide]	< 0.05
COc1cccc([C@@H](O)C(=O)N2C[C@H]3[C@@H]([C@H]2C(=O)N[C@@H](C[C@@H]2CCNC2=O)C(=O)COC(F)(F)F)C3(C)C)c1F [Compound 741, (1R,2S,5S)-3-((R)-2-(2-fluoro-3-methoxyphenyl)-2-hydroxyacetyl)-6,6-dimethyl-N-((S)-3-oxo-1-((S)-2-oxopyrrolidin-3-yl)-4-(trifluoromethoxy)butan-2-yl)-3-azabicyclo[3.1.0]hexane-2-carboxamide]	< 0.05
CC(C)C[C@@H](O)C(=O)N1CCCC[C@H]1C(=O)N[C@@H](C[C@@H]1CCNC1=O)C(=O)COC(F)(F)F [Compound 636, (S)-1-((R)-2-hydroxy-4-methylpentanoyl)-N-((S)-3-oxo-1-((S)-2-oxopyrrolidin-3-yl)-4-(trifluoromethoxy)butan-2-yl)piperidine-2-carboxamide]	0.05 to 0.2

Same assay, conditions: Severe acute respiratory syndrome coronavirus 2, HeLa-ACE2, 24 h; read-out: EC50, uM (Hela)

Structure (SMILES)	EC50 [µM]
CC1(C)[C@@H]2[C@@H](C(=O)N[C@@H](C[C@@H]3CCNC3=O)C(=O)COC(F)(F)F)N(C(=O)C(CN3CCC(F)(F)CC3)NC(=O)C(F)(F)F)C[C@@H]21 (stereo partly drawn) [Compound 442, (1R,2S, 5S)-3-(3-(4,4-difluoropiperidin-1-yl)-2-(2,2,2-trifluoroacetamido)-propanoyl)-6,6-dimethyl-N-((S)-3-oxo-1-((S)-2-oxopyrrolidin-3-yl)-4-(trifluoromethoxy)butan-2-yl)-3-azabicyclo[3.1.0]-hexane-2-carboxamide]	0.2 to 0.5
